How the values were obtained:
Hepatitis C virus [1] = test: Antiviral activity against HCV genotype 1b replicon infected in human HuH7 cells at 20 uM after 72 hrs by bright-glo luciferase reporter gene assay relative to control; assay type: functional, Hepacivirus hominis; settings: subtype 1b, Huh-7, 72 h
Hepatitis C virus [2] = test: Antiviral activity against HCV genotype 1b replicon infected in human HuH7 cells after 72 hrs by bright-glo luciferase reporter gene assay; assay type: functional, organism-based, Hepacivirus hominis; settings: subtype 1b, Huh-7, 72 h
[3] = Cytotoxicity against human HuH7 cells infected with HCV genotype 1b replicon after 72 hrs by CellTiter-Fluor reagent based fluorescence assay; assay type: cell-based, Huh-7
Hepatitis C virus [4] = test: Antiviral activity against HCV genotype 1b replicon infected in human HuH7 cells at 10 uM after 72 hrs by bright-glo luciferase reporter gene assay relative to control; assay type: functional, Hepacivirus hominis; settings: subtype 1b, Huh-7, 72 h
[5] = Stability in human liver microsomes assessed as parent compound remaining at 0.1 uM preincubated with MgCl2 for 10 mins followed by NADPH addition measured after 30 mins by LC-MS/MS analysis; assay type: ADME, Microsome; settings: liver microsomes, read-out: Stability
[6] = Stability in human plasma assessed as parent compound remaining at 40 uM measured after 1 hr by LC-MS/MS analysis; assay type: ADME, cell-free; settings: read-out: Stability
[7] = Stability in human liver microsomes assessed as parent compound remaining at 0.1 uM preincubated with MgCl2 for 10 mins followed by NADPH addition measured immediately by LC-MS/MS analysis; assay type: ADME, Microsome; settings: read-out: Stability
[8] = Half life in human plasma at 40 uM by LC-MS/MS analysis; assay type: ADME, cell-free
[9] = Stability in human liver microsomes assessed as parent compound remaining at 0.1 uM preincubated with MgCl2 for 10 mins followed by NADPH addition measured after 60 mins by LC-MS/MS analysis; assay type: ADME, Microsome; settings: read-out: Stability
[10] = Stability in human liver microsomes assessed as parent compound remaining at 0.1 uM preincubated with MgCl2 for 10 mins followed by NADPH addition measured after 17 mins by LC-MS/MS analysis; assay type: ADME, Microsome; settings: liver microsomes, read-out: Stability
[11] = Stability in human plasma assessed as parent compound remaining at 40 uM measured immediately by LC-MS/MS analysis; assay type: ADME, cell-free; settings: read-out: Stability
[12] = Metabolic bioavailability in human liver microsomes at 0.1 uM preincubated with MgCl2 for 10 mins followed by NADPH addition measured within 60 mins by LC-MS/MS analysis; assay type: ADME, Microsome
[13] = Stability in human plasma assessed as parent compound remaining at 40 uM measured after 0.5 hrs by LC-MS/MS analysis; assay type: ADME, cell-free; settings: read-out: Stability
[14] = Half life in human liver microsomes at 0.1 uM preincubated with MgCl2 for 10 mins followed by NADPH addition by LC-MS/MS analysis; assay type: ADME, Microsome; settings: liver microsomes
[15] = Stability in human plasma assessed as parent compound remaining at 40 uM measured after 5 hrs by LC-MS/MS analysis; assay type: ADME, cell-free; settings: read-out: Stability
[16] = Stability in human liver microsomes assessed as parent compound remaining at 0.1 uM preincubated with MgCl2 for 10 mins followed by NADPH addition measured after 7 mins by LC-MS/MS analysis; assay type: ADME, Microsome; settings: read-out: Stability
[17] = Stability in human plasma assessed as parent compound remaining at 40 uM measured after 2 hrs by LC-MS/MS analysis; assay type: ADME, cell-free; settings: read-out: Stability
Hepatitis C virus [18] = test: Antiviral activity against HCV genotype 1b replicon infected in human HuH7 cells at 100 uM after 72 hrs by bright-glo luciferase reporter gene assay relative to control; assay type: functional, Hepacivirus hominis; settings: subtype 1b, Huh-7, 72 h

SMILES | EC50 (Hepatitis C virus [2]) | CC50 at 72 h [3] | further results
CC(C)OC(=O)[C@H](C)N[P@](=O)(OC[C@H]1O[C@@H](n2ccc(Oc3ccccc3)nc2=O)[C@](C)(F)[C@@H]1O)Oc1ccccc1 | > 20 µM | > 20 µM | inhibition at 20 µM (Hepatitis C virus [1]): 0%
CCNc1nccn([C@@H]2O[C@H](CO)[C@@H](O)[C@@]2(C)O)c1=O | > 100 µM | > 100 µM | –
COc1ccn([C@@H]2O[C@H](CO[P@@](=O)(N[C@@H](C)C(=O)OC(C)C)Oc3ccccc3)[C@@H](O)[C@@]2(C)F)c(=O)n1 | > 20 µM | > 20 µM | inhibition at 20 µM (Hepatitis C virus [1]): 0%
CC(C)OC(=O)[C@H](C)N[P@](=O)(OC[C@H]1O[C@@H](n2ccc(OCc3ccccc3)nc2=O)[C@](C)(F)[C@@H]1O)Oc1ccccc1 | > 20 µM | > 20 µM | inhibition at 20 µM (Hepatitis C virus [1]): 0%
CC(C)OC(=O)[C@@H](C)N[P@@](=O)(OC[C@H]1O[C@@H](n2ccnc(N)c2=O)[C@](C)(O)[C@@H]1O)Oc1ccccc1 | > 100 µM | > 100 µM | –
C[C@@]1(O)[C@H](O)[C@@H](CO)O[C@H]1n1cc(Cl)nc(C(N)=O)c1=O | 7.3 µM | > 100 µM | –
CC(C)OC(=O)[C@H](C)N[P@](=O)(OC[C@H]1O[C@@H](n2ccc(OC3CC3)nc2=O)[C@](C)(F)[C@@H]1O)Oc1ccccc1 | > 20 µM | > 20 µM | inhibition at 20 µM (Hepatitis C virus [1]): 0%
CC(C)OC(=O)[C@H](C)N[P@](=O)(OC[C@H]1O[C@@H](n2cc(C(N)=O)ncc2=O)[C@](C)(O)[C@@H]1O)Oc1ccccc1 | > 100 µM | > 100 µM | –
CCOC(=O)n1c(=O)ccn([C@@H]2O[C@H](CO[P@@](=O)(N[C@@H](C)C(=O)OC(C)C)Oc3ccccc3)[C@@H](O)[C@@]2(C)F)c1=O | 0.65 µM | > 10 µM | inhibition at 10 µM (Hepatitis C virus [4]): 100%
C#CCOc1ccn([C@@H]2O[C@H](CO[P@@](=O)(N[C@@H](C)C(=O)OC(C)C)Oc3ccccc3)[C@@H](O)[C@@]2(C)F)c(=O)n1 | 12.2 µM | > 20 µM | inhibition at 20 µM (Hepatitis C virus [1]): 46.9%
C[C@@]1(O)[C@H](O)[C@@H](CO)O[C@H]1n1cc(Br)ncc1=O | > 100 µM | > 100 µM | –
CC(C)COC(=O)n1c(=O)ccn([C@@H]2O[C@H](CO[P@@](=O)(N[C@@H](C)C(=O)OC(C)C)Oc3ccccc3)[C@@H](O)[C@@]2(C)F)c1=O | 0.4 µM | > 10 µM | remaining at 0.5 h, 0.1 µM [5]: 0%; remaining at 1 h, 40 µM [6]: 61%; remaining at 0 min, 0.1 µM [7]: 100%; half-life at 40 µM [8]: 18 min; remaining at 1 h, 0.1 µM [9]: 0%; inhibition at 10 µM (Hepatitis C virus [4]): 99.9%; remaining at 17 min, 0.1 µM [10]: 0%; remaining at 0 h, 40 µM [11]: 100%; Fh at 1 h, 0.1 µM [12]: 1.33%; remaining at 0.5 h, 40 µM [13]: 87.3%; half-life at 0.1 µM [14]: 1.44 min; remaining at 5 h, 40 µM [15]: 0%; remaining at 7 min, 0.1 µM [16]: 3.5%; remaining at 2 h, 40 µM [17]: 17.2%
C[C@@]1(O)[C@H](O)[C@@H](CO)O[C@H]1n1cc(C(N)=O)ncc1=O | > 100 µM | > 100 µM | –
CCNc1nccn([C@@H]2O[C@](C)(CO)[C@@H](O)[C@H]2O)c1=O | > 100 µM | > 100 µM | –
C[C@]1(CO)O[C@@H](n2ccnc(N)c2=O)[C@H](O)[C@@H]1O | > 100 µM | > 100 µM | –
CCOC(=O)OC(C)n1c(=O)ccn([C@@H]2O[C@H](CO[P@@](=O)(N[C@@H](C)C(=O)OC(C)C)Oc3ccccc3)[C@@H](O)[C@@]2(C)F)c1=O (some centres undefined) | 0.22 µM | > 10 µM | inhibition at 10 µM (Hepatitis C virus [4]): 99.6%

SMILES | EC50 (Hepatitis C virus [2]) | CC50 at 72 h [3] | further results
CC(C)OC(=O)[C@H](C)N[P@](=O)(OC[C@H]1O[C@@H](n2ccc(=O)[nH]c2=O)[C@](C)(F)[C@@H]1O)Oc1ccccc1 [SOFOSBUVIR] | 0.18 µM | > 20 µM | inhibition at 20 µM (Hepatitis C virus [1]): 99.9%
CC(C)OC(=O)[C@H](C)N[P@](=O)(OC[C@H]1O[C@@H](n2ccnc(N)c2=O)[C@](C)(O)[C@@H]1O)Oc1ccccc1 | 24.4 µM | 59.6 µM | inhibition at 100 µM (Hepatitis C virus [18]): 99.8%
CCCCCOC(=O)n1c(=O)ccn([C@@H]2O[C@H](CO[P@@](=O)(N[C@@H](C)C(=O)OC(C)C)Oc3ccccc3)[C@@H](O)[C@@]2(C)F)c1=O | 0.7 µM | > 10 µM | inhibition at 10 µM (Hepatitis C virus [4]): 99.9%
C=CCOc1ccn([C@@H]2O[C@H](CO[P@@](=O)(N[C@@H](C)C(=O)OC(C)C)Oc3ccccc3)[C@@H](O)[C@@]2(C)F)c(=O)n1 | > 20 µM | > 20 µM | inhibition at 20 µM (Hepatitis C virus [1]): 0%
CC(C)=CCOc1ccn([C@@H]2O[C@H](CO[P@@](=O)(N[C@@H](C)C(=O)OC(C)C)Oc3ccccc3)[C@@H](O)[C@@]2(C)F)c(=O)n1 | 0.2 µM | > 20 µM | inhibition at 20 µM (Hepatitis C virus [1]): 99.9%
CC=CCOc1ccn([C@@H]2O[C@H](CO[P@@](=O)(N[C@@H](C)C(=O)OC(C)C)Oc3ccccc3)[C@@H](O)[C@@]2(C)F)c(=O)n1 (mixture of isomers) | 30.3 µM | > 100 µM | inhibition at 100 µM (Hepatitis C virus [18]): 66.3%
CCNc1nccn([C@@H]2O[C@H](CO[P@@](=O)(N[C@@H](C)C(=O)OC(C)C)Oc3ccccc3)[C@@H](O)[C@@]2(C)O)c1=O | > 100 µM | > 100 µM | –
CC(C)OC(=O)[C@H](C)N[P@](=O)(OC[C@@]1(C)O[C@@H](n2ccnc(N)c2=O)[C@H](O)[C@@H]1O)Oc1ccccc1 | 19.5 µM | > 100 µM | inhibition at 100 µM (Hepatitis C virus [18]): 85.1%
C[C@@]1(O)[C@H](O)[C@@H](CO)O[C@H]1n1ccnc(N)c1=O | – | > 100 µM | inhibition at 100 µM (Hepatitis C virus [18]): 22.3%
C[C@]1(CO)O[C@@H](n2ccnc(C(N)=O)c2=O)[C@H](O)[C@@H]1O | > 100 µM | > 100 µM | –
CC(C)OC(=O)[C@H](C)N[P@](=O)(OC[C@H]1O[C@@H](n2ccc(=O)n(C(C)OC(=O)OC3CCCCC3)c2=O)[C@](C)(F)[C@@H]1O)Oc1ccccc1 (some centres undefined) | 0.5 µM | > 10 µM | inhibition at 10 µM (Hepatitis C virus [4]): 99.9%
CCNc1nccn([C@@H]2O[C@](C)(CO[P@@](=O)(N[C@@H](C)C(=O)OC(C)C)Oc3ccccc3)[C@@H](O)[C@H]2O)c1=O | > 100 µM | > 100 µM | –
C=CCNc1ccn([C@@H]2O[C@H](CO[P@@](=O)(N[C@@H](C)C(=O)OC(C)C)Oc3ccccc3)[C@@H](O)[C@@]2(C)F)c(=O)n1 | > 20 µM | > 20 µM | inhibition at 20 µM (Hepatitis C virus [1]): 0%
CCOC(=O)OCn1c(=O)ccn([C@@H]2O[C@H](CO[P@@](=O)(N[C@@H](C)C(=O)OC(C)C)Oc3ccccc3)[C@@H](O)[C@@]2(C)F)c1=O | 0.21 µM | > 10 µM | inhibition at 10 µM (Hepatitis C virus [4]): 99.3%
CC(C)OC(=O)[C@H](C)N[P@](=O)(OC[C@H]1O[C@@H](n2ccc(=O)n(C(=O)OCc3ccccc3)c2=O)[C@](C)(F)[C@@H]1O)Oc1ccccc1 | 0.5 µM | > 10 µM | inhibition at 10 µM (Hepatitis C virus [4]): 99.3%

Reference: ChEMBL document CHEMBL4411327, “Discovery of pyrimidine nucleoside dual prodrugs and pyrazine nucleosides as novel anti-HCV agents” (Bioorg Med Chem, 2019)
